For orientation: MIC means the lowest concentration that inhibits growth of the organism. Higher therefore signals a need for much substance.

These results are taken from patent US5118681A (priority 1989, dated 1992).

The subject of experiment [1] is Puccinia recondita (f. sp. tritici Races PKB and PLD). In words: whole plant or invertebrate. The class given is in vivo. Particulars: Puccinia recondita, 240 h; read-out: % control WLR.
The test system of a further experiment is A.n. In words: Minimum Inhibitory Concentration Test, alternate (Table 4), A.n. The class given is cell-based, Aspergillus niger. Particulars: Aspergillus niger, TSB, 72 hours. In outline:
(§1)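 Compound in acetone was diluted into TSB and serially diluted 1:1 from 250 ppm down to 0.8 ppm, in duplicate. Plates were inoculated with diluted 24 h culture and incubated 3 days at 30° C; MIC recorded as lowest concentration with no growth.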

For the next experiment, the system named is Pseudomonas fluorescens. As to the kind of experiment: Minimum Inhibitory Concentration Test, alternate (Table 4), Ps.fl. The class given is cell-based. Particulars: Pseudomonas fluorescens, TSB, 72 hours, 30° C. In outline:
as §1

The subject of experiment [2] is Pellicularia filamentosa (f. sp. sasiki). As to the kind of experiment: whole plant or invertebrate. The class given is in vivo. Particulars: 120 h; read-out: % control RSB.
In a further experiment the test system is Candida albicans (C.alb). As to the kind of experiment: Minimum Inhibitory Concentration Test, alternate (Table 4), C.alb. The class given is cell-based. Particulars: Candida albicans, TSB, 72 hours. The method, then: (§2) A 125 μl aliquot of 10,000 ppm test compound in acetone was added to 4.88 ml of TSB to provide a 250 ppm solution. From this solution, 100 μL was transferred to the first row of two microtiter plate columns. Both replicates and five additional compounds were all serially diluted 1:1 to a final concentration of 0.8 ppm in TSB.
(§3) Inoculation was accomplished by diluting a 24 hr Ps fl culture, four mls per 36 mls of phosphate buffer solution. A Dynatech autoinoculator was used to transfer 1.5 μl of this cell suspension to the microtiter plates. The plates were incubated at 30° C. for 3 days before the lowest concentration at which no growth occurs was recorded in the database. The SOK data and MIC test data on Ps.fl, Ps.ae, E.c, and S.a. bacteria and Candida albicans (C.alb), A.n and A.p fungi are listed in Table 4.

A further experiment deals with A.p. In words: Minimum Inhibitory Concentration Test, alternate (Table 4), A.p. Particulars: Aureobasidium pullulans, TSB, 72 hours. The format is cell-based. On the procedure: as §2, §3
Another experiment relates to S.a. In words: Minimum Inhibitory Concentration Test, alternate (Table 4), S.a. The class given is cell-based, Staphylococcus aureus. Particulars: Staphylococcus aureus, TSB, 72 hours. On the procedure:
as §2, §3

In a further experiment the test system is Ps.ae. In words: Minimum Inhibitory Concentration Test, alternate (Table 4), Ps.ae. The class given is cell-based, Pseudomonas aerugenosa. Particulars: Pseudomonas, TSB, 72 hours.
The subject of a further experiment is Piricularia oryzae. As to the kind of experiment: whole plant or invertebrate. The class given is in vivo. Particulars: Pyricularia oryzae, read-out: % control RB.
The test system of experiment [3] is Pseudoperonospora cubensis. In words: whole plant or invertebrate. The format is in vivo. Particulars: Pseudoperonospora cubensis, in Cucumis sativus, 168 h; read-out: % control CDM.
For experiment [4], the system named is Erysiphe graminis (f. sp. tritici). In words: whole plant or invertebrate. The format is in vivo. Particulars: Blumeria graminis; read-out: % control WPM.
In a further experiment the test system is E.c. In words: Minimum Inhibitory Concentration Test, alternate (Table 4), E.c. The format is cell-based, Escherichia coli. Particulars: Escherichia coli, TSB, 72 hours. The method, then:
as §2, §3

The test system of the next experiment is Phytophthora infestans. In words: whole plant or invertebrate. The class given is in vivo. Particulars: Phytophthora infestans, in Solanum lycopersicum, 96 h, read-out: % control TLB.
Experiment [5] deals with Puccinia graminis (f. sp. tritici Race 15B-2). In words: whole plant or invertebrate. The class given is in vivo. Particulars: 336 h, read-out: % control WSR.

In brackets after ≈: the same amount, converted by molar mass.

As to `CCCCCCCCNC(=O)/C=C\SC(C(=O)NC1CC1)C(=O)OCC` (stereo not drawn) [Example 36, N-n-octyl-cis-3-[2-(ethyl-N-cyclopropylmalonamido)thio]acrylamide], the pest or weed control at 100 ppm was 50% in experiment [1]; 0% in experiment [2]; 90% in the experiment with Piricularia oryzae; 100% in [3]; 0% in experiment [4]; 47% in the experiment with Phytophthora infestans. In addition, the MIC with A.n was 8 to 16 µg/mL (≈ 20.8 to 41.6 µM); against Pseudomonas fluorescens it was 500 µg/mL (≈ 1300 µM); in the experiment with Candida albicans (C.alb), 31 µg/mL (≈ 80.6 µM); against A.p, less than 2 µg/mL; against S.a, 125 µg/mL (≈ 325 µM); in the experiment with Ps.ae, more than 250 µg/mL. In addition, the MIC with E.c is more than 250 µg/mL.
Take `CCCCCCCCNC(=O)/C=C\SC(C(=O)Nc1cccc(Cl)c1Cl)C(=O)OCC` (stereo not drawn) [Example 35, N-n-octyl-cis-3-{2-[ethyl-N-(2,3-dichlorophenyl)malonamido]thio}acrylamide]: the pest or weed control at 100 ppm in experiment [1] worked out at 50%; in experiment [2], 0%; with Piricularia oryzae it was 0%; in experiment [3], 99%; in [4], 0%; in the experiment with Phytophthora infestans, 95%. For the same compound, the MIC with A.n is 8 to 16 µg/mL (≈ 16.3 to 32.7 µM); with Pseudomonas fluorescens, 500 µg/mL (≈ 1020 µM); in the experiment on Candida albicans (C.alb), 4 µg/mL (≈ 8.17 µM); against A.p, less than 2 µg/mL; against S.a, more than 250 µg/mL; against Ps.ae, more than 250 µg/mL. In addition, the MIC with E.c is more than 250 µg/mL.
Regarding `CCCCCCCCNC(=O)/C=C\SC(C(=O)NCCc1ccccn1)C(=O)OCC` (stereo not drawn) [Example 66, N-n-octyl-cis-3-{2-[ethyl-N-(2-(2-pyridyl)ethyl)malonamido]thio}acrylamide], the pest or weed control at 100 ppm came out at 0% in experiment [1]; 0% in experiment [2]; 0% with Piricularia oryzae; 100% in experiment [3]; 0% in [4]; 40% with Phytophthora infestans. Besides, the MIC against A.n was less than 2 µg/mL; against Pseudomonas fluorescens it was more than 250 µg/mL; with Candida albicans (C.alb), less than 2 µg/mL; in the experiment with A.p, less than 2 µg/mL; in the experiment on S.a it was 63 µg/mL (≈ 140 µM); with Ps.ae, more than 250 µg/mL. This compound also yielded an MIC with E.c of more than 250 µg/mL.
For `CCCCCCCCNC(=O)/C=C\SC(C(C)=O)C(=O)Nc1ccccc1OC` (stereo not drawn) [Example 30, N-n-octyl-cis-3-{2-[N-(2-methoxyphenyl)acetoacetamido]thio}acrylamide], the pest or weed control at 200 ppm in experiment [1] was found to be 0%; in experiment [2] it was 0%; in the experiment on Piricularia oryzae it was 90%; in [3], 100%; in experiment [4], 0%; in the experiment with Phytophthora infestans, 80%. Also, the minimal inhibitory concentration (MIC) with A.n is 31 to 63 µg/mL (≈ 73.7 to 150 µM); against Pseudomonas fluorescens it was more than 500 µg/mL; with Candida albicans (C.alb), 8 µg/mL (≈ 19 µM); with A.p, 250 µg/mL (≈ 594 µM); against S.a it was more than 500 µg/mL; in the experiment with Ps.ae, 500 µg/mL (≈ 1190 µM). The compound also displayed an MIC against E.c of more than 500 µg/mL.
As to `CCCCCCCCNC(=O)/C=C\SC(C(C)=O)C(=O)NCc1ccccc1` (stereo not drawn) [Example 12, N-n-octyl-cis-3-[2-(N-benzylacetoacetamideo)thio]acrylamide], the pest or weed control at 200 ppm came to 75% in experiment [1]; 25% in experiment [2]; 75% in the experiment on Piricularia oryzae; 100% in [3]; 75% in experiment [4]. The MIC was 4 to 16 µg/mL (≈ 9.89 to 39.5 µM) against A.n; 125 to 500 µg/mL (≈ 309 to 1240 µM) with Pseudomonas fluorescens; 16 µg/mL (≈ 39.5 µM) in the experiment on Candida albicans (C.alb); 8 µg/mL (≈ 19.8 µM) with A.p; more than 500 µg/mL in the experiment with S.a; more than 500 µg/mL with Ps.ae. Moreover, in the experiment on E.c, the MIC is more than 500 µg/mL. In the experiment on Phytophthora infestans, the pest or weed control at 100 ppm was determined as 100%.
Consider `CCCCCCCCNC(=O)/C=C\SC(C(C)=O)C(=O)C1CC1` (stereo not drawn) [Example 29, N-n-octyl-cis-3-[2-(1-cyclopropyl-1,3-butanedionyl)thio]acrylamide], for which the pest or weed control at 200 ppm in experiment [1] turned out to be 0%; in experiment [2], 0%; in the experiment on Piricularia oryzae, 77%; in [3] it was 95%; in [4] it was 0%; in the experiment on Phytophthora infestans, 85%. Further, the minimal inhibitory concentration (MIC) in the experiment with A.n was 8 to 31 µg/mL (≈ 23.6 to 91.3 µM); against Pseudomonas fluorescens, more than 500 µg/mL; against Candida albicans (C.alb), 31 µg/mL (≈ 91.3 µM); in the experiment on A.p it was 125 µg/mL (≈ 368 µM); in the experiment on S.a it was more than 500 µg/mL; in the experiment with Ps.ae it was more than 500 µg/mL. The same compound showed a minimum inhibitory concentration (MIC) against E.c of more than 500 µg/mL.
For the compound `CCCCCCCCNC(=O)/C=C\SC(C(=O)NCCCN1CCOCC1)C(=O)OCC` (stereo not drawn) [Example 51, N-n-octyl-cis-3-{2-[ethyl-N-(3-(4-morpholino)propyl)malonamido]thio}acrylamide], the pest or weed control at 100 ppm came out at 0% in experiment [1]; 0% in [2]; 0% in the experiment on Piricularia oryzae; 99% in [3]; 0% in experiment [4]; 0% in the experiment with Phytophthora infestans. Moreover, the MIC against A.n is less than 2 µg/mL; in the experiment on Pseudomonas fluorescens it was more than 250 µg/mL; in the experiment with Candida albicans (C.alb), less than 2 µg/mL; in the experiment on A.p, less than 2 µg/mL; with S.a it was 31 µg/mL (≈ 65.7 µM); in the experiment on Ps.ae, more than 250 µg/mL. The compound also showed a minimum inhibitory concentration (MIC) against E.c of more than 250 µg/mL.
As to `CCCCCCCCNC(=O)/C=C\SC1C(=O)CC(C)(C)CC1=O` [Example 9, N-n-octyl-cis-3-[2-(5,5-dimethyl-1,3-cyclohexanedionyl)thio]acrylamide], the MIC in the experiment with A.n and in the experiment on Pseudomonas fluorescens was more than 500 µg/mL throughout. Moreover, the pest or weed control at 200 ppm was 0% in [2]; 50% with Piricularia oryzae; 60% in experiment [5]; 99% in [3]; 0% in [4]; 70% in the experiment with Phytophthora infestans.
For the compound `CCCCCCCCNC(=O)/C=C\SC(C(C)=O)C(=O)Nc1ccc(OC)cc1` (stereo not drawn) [Example 47, N-n-octyl-cis-3-{2-[N-(4-methoxyphenyl)acetoacetamido]thio}acrylamide], the pest or weed control at 100 ppm stood at 0% in [1]; 0% in experiment [2]; 0% in the experiment on Piricularia oryzae; 100% in [3]; 0% in experiment [4]; 80% in the experiment with Phytophthora infestans. Also, the MIC was 4 to 16 µg/mL (≈ 9.51 to 38 µM) against A.n; more than 250 µg/mL against Pseudomonas fluorescens; 4 µg/mL (≈ 9.51 µM) against Candida albicans (C.alb); less than 2 µg/mL against A.p; 31 µg/mL (≈ 73.7 µM) in the experiment on S.a; more than 250 µg/mL in the experiment with Ps.ae. In the experiment with E.c, this compound displayed a minimum inhibitory concentration (MIC) of more than 250 µg/mL.
As for `CCCCCCCCNC(=O)/C=C\SC(C(=O)CC)C(=O)CC` [Example 8, N-n-octyl-cis-3-[4-(3,5-heptanedionyl)thio]acrylamide], the MIC against A.n and in the experiment with Pseudomonas fluorescens was more than 500 µg/mL in each case. The pest or weed control at 200 ppm in experiment [2] stood at 0%; in the experiment with Piricularia oryzae it was 95%; in experiment [5], 60%; in experiment [3], 95%; in experiment [4] it was 0%; in the experiment on Phytophthora infestans it was 92%.
As to `C=CCNC(=O)C(S/C=C\C(=O)NCCCCCCCC)C(=O)OCC` (stereo not drawn) [Example 37, N-n-octyl-cis-3-{2-[ethyl-N-(2-propenyl)malonamido]thio}acrylamide], the pest or weed control at 100 ppm is 75% in experiment [1]; 0% in [2]; 95% in the experiment with Piricularia oryzae; 100% in [3]; 50% in experiment [4]; 95% with Phytophthora infestans. Moreover, the minimum inhibitory concentration (MIC) with A.n is 4 to 8 µg/mL (≈ 10.4 to 20.8 µM); in the experiment with Pseudomonas fluorescens it was 500 µg/mL (≈ 1300 µM); against Candida albicans (C.alb), 8 µg/mL (≈ 20.8 µM); in the experiment with A.p, less than 2 µg/mL; against S.a it was 31 µg/mL (≈ 80.6 µM); against Ps.ae, more than 250 µg/mL. Further, the MIC in the experiment with E.c is more than 250 µg/mL.
